# According to publication PMC10272112 (Nature Communications, 2023):
# Where two headings read alike, the source gives them in different places.
# Molecular target: T1, HDAC10 (Homo sapiens, UniProt Q969S8)
# T1 construct: host or cells: HeLa mono-clones, stably expressing
# T1 sequence (Q969S8 1-669): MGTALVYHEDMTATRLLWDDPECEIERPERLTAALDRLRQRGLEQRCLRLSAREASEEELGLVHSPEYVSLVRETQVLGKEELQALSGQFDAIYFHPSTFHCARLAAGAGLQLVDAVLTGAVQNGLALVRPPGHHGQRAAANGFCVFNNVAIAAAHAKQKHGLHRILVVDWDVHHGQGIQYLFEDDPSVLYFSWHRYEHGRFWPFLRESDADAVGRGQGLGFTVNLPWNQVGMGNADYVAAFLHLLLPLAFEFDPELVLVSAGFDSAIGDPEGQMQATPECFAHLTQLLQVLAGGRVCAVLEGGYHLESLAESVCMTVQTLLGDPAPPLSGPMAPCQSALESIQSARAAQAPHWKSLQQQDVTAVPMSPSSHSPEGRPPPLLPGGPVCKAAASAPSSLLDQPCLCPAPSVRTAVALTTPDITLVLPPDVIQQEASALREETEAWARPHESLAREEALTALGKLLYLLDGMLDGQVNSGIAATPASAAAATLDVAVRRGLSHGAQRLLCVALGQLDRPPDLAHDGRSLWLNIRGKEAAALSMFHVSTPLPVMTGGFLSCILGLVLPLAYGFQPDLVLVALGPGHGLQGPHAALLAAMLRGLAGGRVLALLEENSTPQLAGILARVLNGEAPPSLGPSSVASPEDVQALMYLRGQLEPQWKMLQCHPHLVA
# Assay: Chemoproteomic competition pulldown assay
# Type: binding
# Experimental: To identify proteins directly bound by lipoic acid, we employed a chemoproteomic competition assay. Briefly, (R/S)-LA was immobilized on sepharose beads via an amidation reaction to form an affinity matrix (abbreviated as iL; Fig. 1a). This affinity matrix can be incubated with cell lysate to pull down potential LA or LM target proteins and identify these targets via bottom-up proteomics. In a competition assay, free LA or LM were incubated with lysate at different concentrations before pulling down and quantifying target proteins. […] (Fig. 1b, see “Methods” for details). […] The lysate buffer used in this assay contains 1 mM DTT to mimic the intracellular reductive milieu and to reduce lipoic acid and LM. […] Additional competition assays performed in lung adenocarcinoma cell A549 lysate also identified HDAC1, HDAC2, and HDAC6 as targets (Supplementary Fig. 1b). Amongst the three cell lines tested, HDACs were the only confidently identified targets across the 1500–3000 proteins quantified in these assays. […] We validated the results by analogous pulldown competition assays using two other affinity matrices prepared via the immobilization of either the HDAC inhibitor Quisinostat (iQ) and an analog of the class IIa HDAC inhibitor Bürli’s 31[14] (iC)[12]. We have previously shown that these affinity matrices specifically bind to the active sites of HDACs and have used them for HDACi selectivity profiling. Indeed, binding of (R/S)-LA and (R/S)-LM to HDAC1, HDAC2, HDAC3, HDAC6, and, to a lesser extent, HDAC8 was confirmed in these assays (Supplementary Fig. 1c, d). No binding to class IIa HDACs or the recently discovered common HDAC inhibitor off-target MBLAC2 was observed (Supplementary Fig. 1e)[12]. […] This observation might reflect electrostatic repulsion between the HDAC10 active site gate-keeper glutamic acid residues[15],[16] and the terminal carboxylic acid of LA.
# To assess the degree of protein depletion from lysates by the affinity matrix, a second pulldown (PDPD) with fresh beads was performed using the unbound protein fraction from the vehicle control flow through. The beads were washed (1 × 1 mL of lysis buffer without inhibitors and only 0.4% Igepal, 2 × 2 mL of lysis buffer without inhibitors and only 0.2% Igepal), and captured proteins were denatured with 8 M urea buffer, alkylated with 55 mM chloroacetamide and digested with Trypsin according to standard procedures. The resulting peptides were desalted on a C18 filter plate (Sep-Pak® tC18 µElution Plate, Waters), vacuum dried, and stored at −20 °C until LC–MSMS measurement.
# For the competition assays, relative binding was calculated based on the protein intensity ratio to the DMSO control for every single inhibitor concentration. EC50 values were derived from a four-parameter log-logistic regression with variable slope (constrain: bottom > 0). The obtained EC50 values were multiplied with a protein-dependent correction factor (cf), resulting in the apparent Kd value (Kd^app). The correction factor is determined by calculating the ratio of the protein intensity of two consecutive pulldowns of the vehicle control sample[13]. Targets of the inhibitors were annotated manually according to published procedures[12],[46],[47]. […] Additionally, the number of unique peptides and MSMS counts per condition were taken into account. Positive target binding across several independent experiments performed with different cell lysates further substantiated our confidence for a true positive drug-target binding event.
# [1] = iQ, SW620, read-out: pKdapp (converted)
# [2] = iQ, SW620 lysate, log10 M -3.52288
# [3] = iQ, SW620 lysate, log10 M -4.52288
# [4] = iQ, SW620 lysate, log10 M -5.52288
# [5] = iQ, SW620 lysate, log10 M -6.52288
"relative binding vs DMSO (iL, MV4-11 lysate, log10 M -3.52288)","relative binding vs DMSO (iL, MV4-11 lysate, log10 M -4)","relative binding vs DMSO (iL, MV4-11 lysate, log10 M -4.52288)","relative binding vs DMSO (iL, MV4-11 lysate, log10 M -5)","relative binding vs DMSO (iL, MV4-11 lysate, log10 M -5.52288)","relative binding vs DMSO (iL, MV4-11 lysate, log10 M -6)","relative binding vs DMSO (iL, MV4-11 lysate, log10 M -6.52288)","relative binding vs DMSO (iL, MV4-11 lysate, log10 M -7)","Kd (iL, MV4-11 lysate, read-out: Kd app) [µM]","Kd (iL, MV411, read-out: pKdapp (converted)) [µM]",Structure (SMILES),HDAC10 binding in competition assays,Kd [1] [µM],relative binding vs DMSO [2],"relative binding vs DMSO (iQ, SW620 lysate, log10 M -4)",relative binding vs DMSO [3],"relative binding vs DMSO (iQ, SW620 lysate, log10 M -5)",relative binding vs DMSO [4],"relative binding vs DMSO (iQ, SW620 lysate, log10 M -6)",relative binding vs DMSO [5],"relative binding vs DMSO (iQ, SW620 lysate, log10 M -7)"
,,,,,,,,,,"O=C(O)CCCCC1CCSS1 (racemic) [(R/S)-LA, (R/S)-lipoic acid]",does not bind HDAC10,> 316,0.8351,1.0789,0.7975,1.279,1.261,1.294,1.332,1.395
0.04424,0.1432,0.2397,0.4705,0.6761,0.5589,0.7984,0.7331,5,3.16,"NC(=O)CCCCC1CCSS1 (racemic) [(R/S)-LM, (R/S)-lipoamide]",binds HDAC10 with an even higher affinity than other HDACs,3.16,0.03275,0.4253,0.3482,0.4143,0.681,0.6621,0.6582,0.9909
